Results from US10456467B2, “Nanoparticle delivery system for targeted anti-obesity treatment” (UNIVERSITY OF WYOMING, priority 2014, dated 2019).

Key:
[1] = molecular target: T1, TRPV1 channel protein (CAP receptor) (Homo sapiens, UniProt Q8NER1); experiment: Fura-2 Ca2+ influx imaging in HEK293 cells expressing TRPV1; type: cell-based; settings: 1 μM CAP or equivalent, 22 degrees Celsius, FIG. 4
T1 construct: expressed in transfected cells; host or cells: HEK293
Protocol: FIG. 4 is a graph 400 of the time to peak rise of Ca^2+ for PLGA coated CMN, pure CAP and MNPs containing no CAP, according to embodiments described herein. HEK293 cells expressing TRPV1 channel protein (CAP receptor) grown on coverslips were loaded with Fura-2 AM (2 μM) for 40 minutes at room temperature. Cells were washed and then viewed with a Leica DMI3000 B inverted microscope coupled to a Polychrome V digital imaging system with Imago CCD camera. Cells were continuously superfused (22 degrees Celsius) with 2 mM Ca^2+ containing normal extracellular solution (NES). The Ca^2+ influx due to the addition of pure capsaicin (1 μM), CMN or PCMN (equivalent of 1 μM CAP), was observed and measured as a function of fluorescence.

[2] = cited from earlier work
[3] = CAP release (dissolution) in pH 7.4 phosphate buffer, Vankel dissolution apparatus; type: physicochemical; settings: 37° C.
From the text: The cumulative release (%) was plotted against time. Cumulative % Release=C1V1×CF/100×C2
C1=Concentration of capsaicin in the final solution (g/ml);
C2=Drug content (mgs) used for dissolution study;
CF=Correction Factor, which is an accommodation for the change in volume due to sampling; and
V1=Volume of dissolution medium (ml)

T1 sequence (Q8NER1 whole entry): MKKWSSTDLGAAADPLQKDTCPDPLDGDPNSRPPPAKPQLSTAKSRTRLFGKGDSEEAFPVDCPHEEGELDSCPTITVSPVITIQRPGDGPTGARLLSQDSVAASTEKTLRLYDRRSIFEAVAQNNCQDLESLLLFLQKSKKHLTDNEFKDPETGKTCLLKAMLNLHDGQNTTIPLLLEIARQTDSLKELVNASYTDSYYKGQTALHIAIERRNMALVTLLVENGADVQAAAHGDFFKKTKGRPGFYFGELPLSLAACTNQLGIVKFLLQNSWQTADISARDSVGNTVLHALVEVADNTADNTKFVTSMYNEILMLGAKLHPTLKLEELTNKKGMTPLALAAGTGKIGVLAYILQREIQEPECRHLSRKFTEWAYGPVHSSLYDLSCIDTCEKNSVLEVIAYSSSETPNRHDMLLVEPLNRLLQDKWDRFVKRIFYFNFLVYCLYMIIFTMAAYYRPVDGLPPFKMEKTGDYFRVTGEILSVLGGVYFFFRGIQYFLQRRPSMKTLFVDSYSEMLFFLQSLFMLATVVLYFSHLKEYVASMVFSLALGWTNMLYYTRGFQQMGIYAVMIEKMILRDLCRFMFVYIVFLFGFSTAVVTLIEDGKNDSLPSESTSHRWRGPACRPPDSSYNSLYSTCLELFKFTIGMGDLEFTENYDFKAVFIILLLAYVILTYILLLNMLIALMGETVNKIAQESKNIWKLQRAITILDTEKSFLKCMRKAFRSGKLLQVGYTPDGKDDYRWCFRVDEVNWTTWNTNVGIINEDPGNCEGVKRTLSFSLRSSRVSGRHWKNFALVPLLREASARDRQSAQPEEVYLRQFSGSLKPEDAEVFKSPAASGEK

- time at which rise in Ca2+ concentration begins [1]: approximately 175 seconds
- time of peak rise in Ca2+ concentration [1]: about 300 seconds
- time of peak CAP concentration (cumulative release) ([3]; FIG. 3, 15 to 3000 minutes): around 500 minutes
- course of CAP concentration after the peak ([3]; FIG. 3, up to 3000 minutes): steadily decrease
SMILES: COc1cc(CNC(=O)CCCC/C=C/C(C)C)ccc1O [pure CAP, capsaicin]
- effect on high fat diet-induced weight gain in the absence of the TRPV1 protein in adipose tissue ([2]; absence of TRPV1 protein in adipose tissue): does not inhibit high fat diet-induced weight gain
- effect on high fat diet-induced weight gain ([2]; mouse model systems): inhibit high fat diet-induced weight gain
